Values joined by “and” are separate entries in the source; they are usually repeats but may differ in a detail not shown here. Identical values can stand only once. Like-named read-outs stand apart in the source and are kept apart here.
Legend:
[1] = tested on: CYP3A4/5; assay: Reversible CYP inhibition in human liver microsomes; conditions: for IC50: at approximately KM
[2] = target: T1, OATP1B1 (Homo sapiens, UniProt Q9Y6L6); assay: Transporter inhibition using transfected HEK293 cells
T1 sequence (Q9Y6L6 1-691): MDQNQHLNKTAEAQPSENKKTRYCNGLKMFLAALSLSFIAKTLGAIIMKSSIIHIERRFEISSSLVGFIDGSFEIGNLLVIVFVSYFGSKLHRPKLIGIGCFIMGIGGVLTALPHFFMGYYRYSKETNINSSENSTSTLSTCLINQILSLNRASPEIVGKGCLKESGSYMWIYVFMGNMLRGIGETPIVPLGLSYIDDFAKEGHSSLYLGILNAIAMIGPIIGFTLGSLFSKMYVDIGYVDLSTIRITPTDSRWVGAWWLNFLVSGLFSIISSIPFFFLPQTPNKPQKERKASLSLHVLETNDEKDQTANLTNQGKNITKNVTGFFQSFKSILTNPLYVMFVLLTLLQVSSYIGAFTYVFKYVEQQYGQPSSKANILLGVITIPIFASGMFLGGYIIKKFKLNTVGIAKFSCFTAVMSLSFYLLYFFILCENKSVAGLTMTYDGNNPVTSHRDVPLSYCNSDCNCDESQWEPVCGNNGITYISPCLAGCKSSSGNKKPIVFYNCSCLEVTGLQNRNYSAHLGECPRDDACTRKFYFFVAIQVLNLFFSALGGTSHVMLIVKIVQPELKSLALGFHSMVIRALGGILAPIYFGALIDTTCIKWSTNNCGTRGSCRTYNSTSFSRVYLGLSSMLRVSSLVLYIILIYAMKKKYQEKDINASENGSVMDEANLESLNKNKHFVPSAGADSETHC

[3] = target: T2, MATE1 (Homo sapiens, UniProt Q96FL8); assay: as above
T2 sequence (Q96FL8 1-570): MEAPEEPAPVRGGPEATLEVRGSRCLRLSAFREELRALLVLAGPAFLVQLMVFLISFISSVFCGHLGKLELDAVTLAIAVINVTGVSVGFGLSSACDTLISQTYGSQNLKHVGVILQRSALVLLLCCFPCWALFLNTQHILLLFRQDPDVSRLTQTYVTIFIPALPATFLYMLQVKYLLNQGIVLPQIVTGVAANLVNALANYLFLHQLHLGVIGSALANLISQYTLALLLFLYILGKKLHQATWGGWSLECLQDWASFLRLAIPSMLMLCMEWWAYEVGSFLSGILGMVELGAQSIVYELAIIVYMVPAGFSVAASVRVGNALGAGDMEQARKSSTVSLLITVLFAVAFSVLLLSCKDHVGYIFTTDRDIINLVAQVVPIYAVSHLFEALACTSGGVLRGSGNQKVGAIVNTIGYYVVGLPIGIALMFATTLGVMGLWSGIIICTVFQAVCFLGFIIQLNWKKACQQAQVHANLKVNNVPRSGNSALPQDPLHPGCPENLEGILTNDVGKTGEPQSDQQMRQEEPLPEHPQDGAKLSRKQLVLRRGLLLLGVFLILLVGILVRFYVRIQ

[4] = target: CYP3A4/5; assay: Time-dependent inhibition of CYP enzymes in human liver microsomes

COc1cccc2[nH]c(C(=O)N[C@@H](CC(C)C)C(=O)N[C@@H](C[C@@H]3CCNC3=O)C(=O)CO)cc12 [PF-00835231]
Percent of Control Activity ([1]; CYP 3A4/5 (tst), 0.214 µM, 30-Minute Preincubation): 110.1%
Percent of Control Activity ([1]; CYP 3A4/5 (tst), 0.214 µM, Zero-Minute Preincubation): 116.0% and 141.9%
Percent of Control Activity ([1]; CYP 3A4/5 (tst), 0.979 µM, 30-Minute Preincubation): 122.3%
Percent of Control Activity ([1]; CYP 3A4/5 (tst), 0.979 µM, Zero-Minute Preincubation): 120.0% and 100.0%
Percent of Control Activity ([1]; CYP 3A4/5 (tst), 2.09 µM, 30-Minute Preincubation): 146.9% and 144.6% and 107.9%
Percent of Control Activity ([1]; CYP 3A4/5 (tst), 2.09 µM, Zero-Minute Preincubation): 128.1%
Percent of Control Activity ([1]; CYP 3A4/5 (tst), 4.48 µM, 30-Minute Preincubation): 142.0% and 164.4%
Percent of Control Activity ([1]; CYP 3A4/5 (tst), 4.48 µM, Zero-Minute Preincubation): 92.4% and 117.7% and 97.0%
Percent of Control Activity ([1]; CYP 3A4/5 (tst), 20.5 µM, 30-Minute Preincubation): 84.0%
Percent of Control Activity ([1]; CYP 3A4/5 (tst), 20.5 µM, Zero-Minute Preincubation): 71.0% and 70.3%
Percent of Control Activity ([1]; CYP 3A4/5 (tst), 43.8 µM, 30-Minute Preincubation): 71.6%
Percent of Control Activity ([1]; CYP 3A4/5 (tst), 43.8 µM, Zero-Minute Preincubation): 96.7%
Percent of Control Activity ([1]; CYP 3A4/5 (tst), 93.5 µM, 30-Minute Preincubation): 42.9% and 41.8%
Percent of Control Activity ([1]; CYP 3A4/5 (tst), 93.5 µM, Zero-Minute Preincubation): 60.1%
Percent of Control Activity ([1]; CYP 3A4/5 (tst), 200 µM, 30-Minute Preincubation): 26.6%
Percent of Control Activity ([1]; CYP 3A4/5 (tst), 200 µM, Zero-Minute Preincubation): 39.6% and 35.7%
IC50 ([1]; human, human liver microsomes, pH 7.4, probe midazolam (1′-hydroxylation), IC50, Midazolam 1′-hydroxylation, T0): > 200 µM
IC50 ([1]; human, human liver microsomes, pH 7.4, probe midazolam (1′-hydroxylation), IC50, Midazolam 1′-hydroxylation, T30): > 200 µM
activity at 0.1 µM ([1]; human, human liver microsomes, pH 7.4, probe midazolam (mdz), Percent of Control Activity, CYP 3A4/5 (mdz), 0.1 µM, 30-Minute Preincubation): 113%
activity at 0.214 µM ([1]; human, human liver microsomes, pH 7.4, probe midazolam (mdz), Percent of Control Activity, CYP 3A4/5 (mdz), 0.214 µM, 30-Minute Preincubation): 111%
activity at 0.214 µM ([1]; human, human liver microsomes, pH 7.4, probe midazolam (mdz), Percent of Control Activity, CYP 3A4/5 (mdz), 0.214 µM, Zero-Minute Preincubation): 107%
activity at 0.979 µM ([1]; human, human liver microsomes, pH 7.4, probe midazolam (mdz), Percent of Control Activity, CYP 3A4/5 (mdz), 0.979 µM, 30-Minute Preincubation): 113%
activity at 0.979 µM ([1]; human, human liver microsomes, pH 7.4, probe midazolam (mdz), Percent of Control Activity, CYP 3A4/5 (mdz), 0.979 µM, Zero-Minute Preincubation): 115%
activity at 2.09 µM ([1]; human, human liver microsomes, pH 7.4, probe midazolam (mdz), Percent of Control Activity, CYP 3A4/5 (mdz), 2.09 µM, 30-Minute Preincubation): 112%
activity at 2.09 µM ([1]; human, human liver microsomes, pH 7.4, probe midazolam (mdz), Percent of Control Activity, CYP 3A4/5 (mdz), 2.09 µM, Zero-Minute Preincubation): 100%
activity at 4.48 µM ([1]; human, human liver microsomes, pH 7.4, probe midazolam (mdz), Percent of Control Activity, CYP 3A4/5 (mdz), 4.48 µM, 30-Minute Preincubation): 106%
activity at 43.8 µM ([1]; human, human liver microsomes, pH 7.4, probe midazolam (mdz), Percent of Control Activity, CYP 3A4/5 (mdz), 43.8 µM, 30-Minute Preincubation): 88.1%
activity at 93.5 µM ([1]; human, human liver microsomes, pH 7.4, probe midazolam (mdz), Percent of Control Activity, CYP 3A4/5 (mdz), 93.5 µM, 30-Minute Preincubation): 72.3%
activity at 93.5 µM ([1]; human, human liver microsomes, pH 7.4, probe midazolam (mdz), Percent of Control Activity, CYP 3A4/5 (mdz), 93.5 µM, Zero-Minute Preincubation): 113%
activity at 200 µM ([1]; human, human liver microsomes, pH 7.4, probe midazolam (mdz), Percent of Control Activity, CYP 3A4/5 (mdz), 200 µM, 30-Minute Preincubation): 54.3%
activity at 200 µM ([1]; human, human liver microsomes, pH 7.4, probe midazolam (mdz), Percent of Control Activity, CYP 3A4/5 (mdz), 200 µM, Zero-Minute Preincubation): 107%
IC50 ([1]; human, human liver microsomes, pH 7.4, probe testosterone (6β-hydroxylation), IC50 (confidence interval), Testosterone 6β-hydroxylation, T0): 108 µM
IC50 ([1]; human, human liver microsomes, pH 7.4, probe testosterone (6β-hydroxylation), IC50 (confidence interval), Testosterone 6β-hydroxylation, T30): 62.4 µM
activity at 30 min, 0.1 µM ([1]; human, human liver microsomes, pH 7.4, probe testosterone (tst), Percent of Control Activity, CYP 3A4/5 (tst), 0.1 µM, 30-Minute Preincubation): 92.1%
activity at 0.1 µM ([1]; human, human liver microsomes, pH 7.4, probe testosterone (tst), Percent of Control Activity, CYP 3A4/5 (tst), 0.1 µM, Zero-Minute Preincubation): 88.6%
activity at 30 min, 0.214 µM ([1]; human, human liver microsomes, pH 7.4, probe testosterone (tst), Percent of Control Activity, CYP 3A4/5 (tst), 0.214 µM, 30-Minute Preincubation): 115%
activity at 30 min, 0.979 µM ([1]; human, human liver microsomes, pH 7.4, probe testosterone (tst), Percent of Control Activity, CYP 3A4/5 (tst), 0.979 µM, 30-Minute Preincubation): 116%
activity at 0 min, 0.979 µM ([1]; human, human liver microsomes, pH 7.4, probe testosterone (tst), Percent of Control Activity, CYP 3A4/5 (tst), 0.979 µM, Zero-Minute Preincubation): 114%
activity at 0 min, 2.09 µM ([1]; human, human liver microsomes, pH 7.4, probe testosterone (tst), Percent of Control Activity, CYP 3A4/5 (tst), 2.09 µM, Zero-Minute Preincubation): 109%
activity at 43.8 µM ([1]; human, human liver microsomes, pH 7.4, probe testosterone (tst), Percent of Control Activity, CYP 3A4/5 (tst), 43.8 µM, 30-Minute Preincubation): 73.4%
activity at 43.8 µM ([1]; human, human liver microsomes, pH 7.4, probe testosterone (tst), Percent of Control Activity, CYP 3A4/5 (tst), 43.8 µM, Zero-Minute Preincubation): 75.3%
activity at 93.5 µM ([1]; human, human liver microsomes, pH 7.4, probe testosterone (tst), Percent of Control Activity, CYP 3A4/5 (tst), 93.5 µM, 30-Minute Preincubation): 37.7%
activity at 93.5 µM ([1]; human, human liver microsomes, pH 7.4, probe testosterone (tst), Percent of Control Activity, CYP 3A4/5 (tst), 93.5 µM, Zero-Minute Preincubation): 54.9%
activity at 200 µM ([1]; human, human liver microsomes, pH 7.4, probe testosterone (tst), Percent of Control Activity, CYP 3A4/5 (tst), 200 µM, 30-Minute Preincubation): 15.1%
activity at 200 µM ([1]; human, human liver microsomes, pH 7.4, probe testosterone (tst), Percent of Control Activity, CYP 3A4/5 (tst), 200 µM, Zero-Minute Preincubation): 36.4%
IC50 [2]: 30.1 µM
IC50 ([2]; human, HEK293 cells stably transfected with OATP1B1, pH 7.4, probe rosuvastatin (0.5 µM)): > 20 µM
IC50 ([3]; IC50, [14C]Metformin (20 µM)): 175 µM
IC50 ([3]; human, pH 7.4, IC50, [14C]Metformin (20 µM)): > 20 µM
KI ± SE ([4]; Midazolam (20 µM)): 163 ± 31 µM
KI ± SE ([4]; Midazolam (20 µM), listed as PF00835231): 163 µM
KI ± SE ([4]; Testosterone ([…])): 168 ± 8 µM
time-dependent inhibition (TDI) signal ([4]; pooled HLM): weak signal

From paper PMC8523698, “Preclinical characterization of an intravenous coronavirus 3CL protease inhibitor for the potential treatment of COVID19” (Nature Communications, 2021)
